Data published in the NIST ThermoML archive (doi:10.1021/je6005168).
Numbers after ± are expanded uncertainties.

Assay: molar heat capacity at constant pressure
Conditions: 101.33 kPa, Crystal, Small sample (50 mg) DSC

Question: For `Cn1c(N)cc(=O)[nH]c1=O` [6-amino-1-methyluracil], which “molar heat capacity at constant pressure” value (298.15 K) is on record?
Answer: 166.2 ± 3.3 J/K/mol

Question: And the “molar heat capacity at constant pressure” value (303.15 K)?
Answer: 167 ± 3.3 J/K/mol

Question: What about the “molar heat capacity at constant pressure” value (308.15 K) of the same molecule?
Answer: 168 ± 3.4 J/K/mol

Question: What about the “molar heat capacity at constant pressure” value (313.15 K) of the same molecule?
Answer: 168.5 ± 3.4 J/K/mol

Question: And the “molar heat capacity at constant pressure” value (318.15 K)?
Answer: 169.2 ± 3.4 J/K/mol

Question: What about the “molar heat capacity at constant pressure” value (323.15 K) of the same molecule?
Answer: 170 ± 3.4 J/K/mol

Question: What about the “molar heat capacity at constant pressure” value (328.15 K) of the same molecule?
Answer: 171 ± 3.4 J/K/mol

Question: And the “molar heat capacity at constant pressure” value (333.15 K)?
Answer: 171.4 ± 3.4 J/K/mol

Question: What about the “molar heat capacity at constant pressure” value (338.15 K) of the same molecule?
Answer: 172.2 ± 3.4 J/K/mol

Question: And the “molar heat capacity at constant pressure” value (343.15 K)?
Answer: 173 ± 3.5 J/K/mol

Question: With `Nc1c[nH]c(=O)[nH]c1=O` [2,4(1H,3H)-pyrimidinedione, 5-amino-] as the molecule, how does the “molar heat capacity at constant pressure” value (298.15 K) read?
Answer: 145 ± 2.9 J/K/mol

Question: And the “molar heat capacity at constant pressure” value (303.15 K)?
Answer: 145.5 ± 2.9 J/K/mol

Question: And the “molar heat capacity at constant pressure” value (308.15 K)?
Answer: 146.2 ± 2.9 J/K/mol

Question: What about the “molar heat capacity at constant pressure” value (313.15 K) of the same molecule?
Answer: 147 ± 2.9 J/K/mol

Question: And the “molar heat capacity at constant pressure” value (318.15 K)?
Answer: 148 ± 3 J/K/mol

Question: And the “molar heat capacity at constant pressure” value (323.15 K)?
Answer: 148.4 ± 3 J/K/mol

Question: And the “molar heat capacity at constant pressure” value (328.15 K)?
Answer: 149.1 ± 3 J/K/mol

Question: What about the “molar heat capacity at constant pressure” value (333.15 K) of the same molecule?
Answer: 150 ± 3 J/K/mol

Question: What about the “molar heat capacity at constant pressure” value (338.15 K) of the same molecule?
Answer: 150.6 ± 3 J/K/mol

Question: And the “molar heat capacity at constant pressure” value (343.15 K)?
Answer: 151.3 ± 3 J/K/mol

Question: Which results are given for `Nc1cc(O)nc(O)n1` [6-aminouracil]?
Answer: molar heat capacity at constant pressure (298.15 K): 147 ± 2.9 J/K/mol; molar heat capacity at constant pressure (303.15 K): 147.6 ± 3 J/K/mol; molar heat capacity at constant pressure (308.15 K): 148.2 ± 3 J/K/mol; molar heat capacity at constant pressure (313.15 K): 149 ± 3 J/K/mol; molar heat capacity at constant pressure (318.15 K): 149.6 ± 3 J/K/mol; molar heat capacity at constant pressure (323.15 K): 150.3 ± 3 J/K/mol; molar heat capacity at constant pressure (328.15 K): 151 ± 3 J/K/mol; molar heat capacity at constant pressure (333.15 K): 151.6 ± 3 J/K/mol; molar heat capacity at constant pressure (338.15 K): 152.3 ± 3 J/K/mol; molar heat capacity at constant pressure (343.15 K): 153 ± 3.1 J/K/mol

Question: Which “molar heat capacity at constant pressure” value (298.15 K) does the source give for `Cn1c(N)cc(=O)n(C)c1=O` [6-amino-1,3-dimethyluracil] here?
Answer: 189 ± 3.8 J/K/mol

Question: And the “molar heat capacity at constant pressure” value (303.15 K)?
Answer: 191 ± 3.8 J/K/mol

Question: And the “molar heat capacity at constant pressure” value (308.15 K)?
Answer: 193.1 ± 3.9 J/K/mol

Question: What about the “molar heat capacity at constant pressure” value (313.15 K) of the same molecule?
Answer: 195.2 ± 3.9 J/K/mol

Question: And the “molar heat capacity at constant pressure” value (318.15 K)?
Answer: 197.3 ± 3.9 J/K/mol

Question: And the “molar heat capacity at constant pressure” value (323.15 K)?
Answer: 199.5 ± 4 J/K/mol

Question: What about the “molar heat capacity at constant pressure” value (328.15 K) of the same molecule?
Answer: 201.6 ± 4 J/K/mol

Question: And the “molar heat capacity at constant pressure” value (333.15 K)?
Answer: 204 ± 4.1 J/K/mol

Question: What about the “molar heat capacity at constant pressure” value (338.15 K) of the same molecule?
Answer: 206 ± 4.1 J/K/mol

Question: What about the “molar heat capacity at constant pressure” value (343.15 K) of the same molecule?
Answer: 208 ± 4.2 J/K/mol
